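Five compound concentrations were applied to cells in 96-well plates for 48 hours; endpoints were derived by simple linear interpolation of the resulting dose-response curve. Abbreviation: GI50, concentration required for 50% inhibition of growth.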 Calls of active or inactive are those of the source. Rule as the data show it: active = GI50 up to about 1.1 µM and inactive = higher.
Tests used:
Experiment in all cases: DTP human tumour cell line panel, 48 h
ACHN = tested on: ACHN
BT-549 = tested on: BT-549
CCRF-CEM = tested on: CCRF-CEM
HCT-15 = tested on: HCT-15
Hs-578T = tested on: Hs-578T
K562 = tested on: K562
KM12 = tested on: KM12
LOX IMVI = tested on: LOX IMVI
M14 = tested on: M14
MDA-N = tested on: MDA-N
NCI-H23 = tested on: NCI-H23
NCI/ADR-RES = tested on: NCI/ADR-RES
OVCAR-8 = tested on: OVCAR-8
SF-268 = tested on: SF-268
SF-295 = tested on: SF-295
SK-MEL-5 = tested on: SK-MEL-5
SN12C = tested on: SN12C
TK-10 = tested on: TK-10
UO-31 = tested on: UO-31

| SMILES | GI50 (ACHN) | GI50 (BT-549) | GI50 (CCRF-CEM) | GI50 (HCT-15) | GI50 (Hs-578T) | GI50 (K562) | GI50 (KM12) | GI50 (LOX IMVI) | GI50 (M14) | GI50 (MDA-N) | GI50 (NCI-H23) | GI50 (NCI/ADR-RES) | GI50 (OVCAR-8) | GI50 (SF-268) | GI50 (SF-295) | GI50 (SK-MEL-5) | GI50 (SN12C) | GI50 (TK-10) | GI50 (UO-31) |
| --- | --- | --- | --- | --- | --- | --- | --- | --- | --- | --- | --- | --- | --- | --- | --- | --- | --- | --- | --- |
| CN(C)S(=O)(=O)c1ccc(Nc2ccc(O)c3c2C(=O)c2c([N+](=O)[O-])ccc(O)c2C3=O)cc1 | 55 µM (inactive) | > 100 µM (inactive) | 4.39 µM (inactive) | > 100 µM | > 100 µM (inactive) | > 100 µM (inactive) | > 100 µM (inactive) | 64.7 µM (inactive) | > 100 µM (inactive) | > 100 µM (inactive) | > 100 µM (inactive) | > 100 µM (inactive) | > 100 µM (inactive) | > 100 µM (inactive) | > 100 µM (inactive) | 72.3 µM (inactive) | > 100 µM (inactive) | 56.4 µM (inactive) | > 100 µM (inactive) |
| Cc1ncn(-c2ccccc2O)c1C | > 100 µM (inactive) | > 100 µM (inactive) | > 100 µM (inactive) | > 100 µM | > 100 µM (inactive) | > 100 µM (inactive) | > 100 µM (inactive) | > 100 µM (inactive) | > 100 µM (inactive) | > 100 µM (inactive) | > 100 µM (inactive) | > 100 µM (inactive) | > 100 µM (inactive) | > 100 µM (inactive) | 55.5 µM (inactive) | 74.8 µM (inactive) | > 100 µM (inactive) | > 100 µM (inactive) | > 100 µM (inactive) |
| S=C(Nc1ccc(Cl)cc1)SC1CCCCC1 | 17.5 µM (inactive) | 29 µM (inactive) | 33.7 µM (inactive) | 23.2 µM | 31.8 µM (inactive) | 36.1 µM (inactive) | 28 µM (inactive) | 16.4 µM (inactive) | 19.7 µM (inactive) | 22.8 µM (inactive) | 20.5 µM (inactive) | 37.1 µM (inactive) | 31.5 µM (inactive) | 27 µM (inactive) | 19.1 µM (inactive) | 16.7 µM (inactive) | 19.2 µM (inactive) | 40.6 µM (inactive) | 27 µM (inactive) |
| N=C(N)NS(=O)(=O)c1ccc(Nc2c3ccccc3nc3c(C(=O)NNCCO)cccc23)cc1 | 0.565 µM (active) | 0.121 µM (active) | 0.0541 µM (active) | 0.33 µM | 0.249 µM (active) | 0.055 µM (active) | 0.141 µM (active) | 0.165 µM (active) | 0.21 µM (active) | 0.136 µM (active) | 0.133 µM (active) | > 1 µM (active) | 0.303 µM (active) | 0.141 µM (active) | 0.407 µM (active) | 0.123 µM (active) | 0.282 µM (active) | > 1 µM (active) | 0.416 µM (active) |
| Nc1nc(N)c(NC(=O)CCCO)c(=O)[nH]1 | > 100 µM (inactive) | > 100 µM (inactive) | > 100 µM (inactive) | > 100 µM | > 100 µM (inactive) | > 100 µM (inactive) | > 100 µM (inactive) | > 100 µM (inactive) | > 100 µM (inactive) | > 100 µM (inactive) | > 100 µM (inactive) | > 100 µM (inactive) | > 100 µM (inactive) | > 100 µM (inactive) | > 100 µM (inactive) | > 100 µM (inactive) | > 100 µM (inactive) | > 100 µM (inactive) | > 100 µM (inactive) |
| COC(=O)/C(C#N)=C/c1cc(C(C)(C)C)c(O)c(C(C)(C)C)c1 | 2.77 µM (inactive) | 2.77 µM (inactive) | 1.9 µM (inactive) | 2.67 µM | 3.55 µM (inactive) | 2.59 µM (inactive) | 2.62 µM (inactive) | 3.95 µM (inactive) | 3.12 µM (inactive) | 2.92 µM (inactive) | 1.42 µM (inactive) | 1.11 µM (active) | 2.99 µM (inactive) | 3.27 µM (inactive) | 1.74 µM (inactive) | 1.18 µM (inactive) | 1.48 µM (inactive) | 3.24 µM (inactive) | 2.17 µM (inactive) |
| COC(=O)/C(=N\NC(N)=O)C(C(=O)C(=O)Nc1ccccc1OC)c1nc2ccc([N+](=O)[O-])cc2nc1O (centres undefined) | > 100 µM (inactive) | > 100 µM (inactive) | > 100 µM (inactive) | > 100 µM | 82.2 µM (inactive) | 30 µM (inactive) | 58.1 µM (inactive) | > 100 µM (inactive) | > 100 µM (inactive) | 55.1 µM (inactive) | > 100 µM (inactive) | > 100 µM (inactive) | > 100 µM (inactive) | > 100 µM (inactive) | > 100 µM (inactive) | > 100 µM (inactive) | > 100 µM (inactive) | > 100 µM (inactive) | > 100 µM (inactive) |
| C=CC[C@H](N=C(SC)SC)C(=O)N1C(=O)N(C)[C@@H](C)[C@H]1c1ccccc1 | 49.4 µM (inactive) | 34.6 µM (inactive) | 22.3 µM (inactive) | 49.8 µM | 21.3 µM (inactive) | 29.6 µM (inactive) | 36.2 µM (inactive) | 72.8 µM (inactive) | 34.9 µM (inactive) | 33.8 µM (inactive) | 39.3 µM (inactive) | 29.5 µM (inactive) | 51.1 µM (inactive) | 26.5 µM (inactive) | 40.3 µM (inactive) | 20 µM (inactive) | 40.7 µM (inactive) | 44.2 µM (inactive) | 47.9 µM (inactive) |
| COCc1nc2c(OC)c(-c3nc4ccc(N5CCN(C)CC5)nc4[nH]3)cc(OC)c2[nH]1 | 62.2 µM (inactive) | > 100 µM (inactive) | 21.2 µM (inactive) | 38.1 µM | > 100 µM (inactive) | 25.4 µM (inactive) | 27.4 µM (inactive) | 30.8 µM (inactive) | 21.3 µM (inactive) | 73.3 µM (inactive) | 62.5 µM (inactive) | > 100 µM (inactive) | 82.6 µM (inactive) | 77.4 µM (inactive) | 31.6 µM (inactive) | 18.6 µM (inactive) | 51.5 µM (inactive) | 67.3 µM (inactive) | 56.2 µM (inactive) |
| Clc1ccc2c(NC3CCC(N4CCCCC4)CC3)ccnc2c1 (centres undefined) | 32.6 µM (inactive) | 18.5 µM (inactive) | 6.03 µM (inactive) | 27.4 µM | 27.2 µM (inactive) | 3.3 µM (inactive) | 20.1 µM (inactive) | 14.9 µM (inactive) | 5.16 µM (inactive) | 16.7 µM (inactive) | 52.5 µM (inactive) | 34 µM (inactive) | 29.4 µM (inactive) | 35.8 µM (inactive) | 19.1 µM (inactive) | 15.2 µM (inactive) | 34.5 µM (inactive) | 18.4 µM (inactive) | 13.9 µM (inactive) |
| CN1CSC(=S)N(c2cccc(C(F)(F)F)c2)C1 | 19 µM (inactive) | 20.7 µM (inactive) | 30.4 µM (inactive) | 18.7 µM | 28.9 µM (inactive) | 24 µM (inactive) | 22.4 µM (inactive) | 20.2 µM (inactive) | 17.9 µM (inactive) | 29.2 µM (inactive) | 17.9 µM (inactive) | 26.9 µM (inactive) | 25.4 µM (inactive) | 23.1 µM (inactive) | 21.8 µM (inactive) | 17.1 µM (inactive) | 36.1 µM (inactive) | 28.6 µM (inactive) | 26.4 µM (inactive) |

Source: ChEMBL document CHEMBL1201862, “PubChem BioAssay data set” (2004)
